test system: HCV replicon; experiment: HCV replicon replication assay (NPT ELISA); format: cell-based; settings: Hepatitis C virus, 72 h; Huh-7 HCV replicon-containing cells, three days; class symbols; read-out: EC50
Method: Compounds claimed herein are tested for the ability to inhibit viral replication of the Hepatitis C replicon in cultured cells in which the HCV replicon construct has been incorporated. The HCV replicon system was described by Bartenschlager, et. al (Science, 285, pp. 110-113 (1999)). The replicon system is predictive of in vivo anti-HCV activity; compounds that are active in humans uniformly evidence activity in the replicon assay.
In this assay HCV replicon containing cells are treated with different concentrations of the test compound to ascertain the ability of the test compound to suppress replication of the HCV replicon. As a positive control, HCV replicon-containing cells are treated with different concentrations of interferon alpha, a known inhibitor of HCV replication. The replicon assay system includes Neomycin Phosphotransferase (NPT) as a component of the replicon itself in order to detect the transcription of replicon gene products in the host cell. Cells in which the HCV replicon is actively replicating have high levels of NPT; the level of NPT is proportional to HCV replication. […] The NPT level of each sample is measured using a captured ELISA.
A protocol for testing compounds for the ability to inhibit viral replication of the Hepatitis C replicon cultured cells in which the replicon construct has been incorporated, follows.
The HCV replicon contains, 5′-3′, the HCV-IRES, the neomycin phosphotransferase (neo) gene, the IRES of encephalomyocarditis virus, which directs translation of HCV sequences NS3 to NS5B, and the 3′-NTR. The sequence of the HCV replicon has been deposited in GenBank (Accession no. AJ242652).
The replicon is transfected into Huh-7 cells using standard methods such as electroporation.
The equipment and materials include, but are not limited to, Huh-7 HCV replicon-containing cells, maintenance media (DMEM (Dulbecco's modified Eagle media) supplemented with 10% FBS, L-glutamine, non-essential amino acids, penicillin (100 units/ml), streptomycin (100 micrograms/ml), and 500 micrograms/ml of Geneticin (G418), screening media (DMEM supplemented with 10% FBS, L-glutamine, non-essential amino acids, penicillin (100 units/ml) and streptomycin (100 micrograms/ml)), 96 well tissue culture plates (flat bottom), 96 well plates (U bottom for drug dilution), Interferon alpha for positive control, fixation reagent (such as methanol: acetone), primary antibody (rabbit anti-NPTII), secondary antibody: Eu-N1 1, and enhancement solution.
HCV replicon-containing cells support high levels of viral RNA replicon replication when their density is suitable. Over-confluency causes decreased viral RNA replication. Therefore, cells must be kept growing in log phase in the presence of 500 micrograms/ml of G418. Generally, cells should be passed twice a week at 1: 4-6 dilution. Cell maintenance is conducted as follows:
HCV replicon-containing cells are examined under a microscope to ensure that cells growing well. Cells are rinsed once with PBS and 2 ml trypsin is added. The cell/trypsin mixture is incubated at 37° C. in a CO2 incubator for 3-5 minutes. After incubation 10 ml of complete media is added to stop the trypsinization reaction. Cells are blown gently, put into a 15 ml tube, and spun at 1200 rpm for 4 minutes. The trypsin/medium solution is removed. Medium (5 ml) is added and the cells are mixed carefully. The cells are counted.
The cells are then seeded onto 96-well plates at a density of 6000-7500 cells/100 microliters/well (6−7.5×10^5 cells/10 ml/plate). The plates are then incubated at 37° C. in a 5% CO2 incubator.
Cells are examined under a microscope approximated 24 hours after seeding and prior to adding drugs. If counting and dilution were performed correctly, cells are 60-70% confluent and nearly all cells should attach and spread evenly in the well.
HCV replicon-containing cells are rinsed with once PBS once; 2 mls of trypsin are then added. Cells are incubated at 37° C. in a 5% CO2 incubator for 3-5 minutes. […]

Compound | EC50
CNC(=O)C[C@H](C(=O)N1CCC[C@@H]1c1ncc(-c2ccc(-c3ccc(-c4cnc([C@@H]5CCCN5C(=O)[C@@H](CC(=O)NC)C(C)C)[nH]4)cc3)cc2)[nH]1)C(C)C [Compound 40, (S)-3-((R)-2-(5-(4′-(2-((S)-1-((S)-2-isopropyl-4-(methylamino)-4-oxobutanoyl)pyrrolidin-2-yl)-1H-imidazol-5-yl)biphenyl-4-yl)-1H-imidazol-2-yl)pyrrolidine-1-carbonyl)-N,4-dimethylpentanamide] | < 5 nM
COC(=O)N[C@H](C(=O)N1CCc2ccc(NC(=O)c3ccc(-c4ccc(-c5cnc([C@@H]6CCCN6C(=O)[C@@H](NC(=O)OC)C(C)C)[nH]5)cc4)cc3)cc21)C(C)C [Compound 41] | < 5 nM
COC(=O)NC(C(=O)N1CCC[C@H]1Cc1nc(-c2ccc(-c3ccc(-c4cnc([C@@H]5CCCN5C(=O)[C@@H](NC(=O)OC)C(C)C)[nH]4)cc3)cc2)c[nH]1)C(C)C (some centres unmarked) [Compound 42] | < 5 nM
COC(=O)N[C@H](C(=O)N1CCC[C@H]1c1ncc(-c2ccc(-c3ccc(-c4c[nH]c([C@@H]5C6CC([C@H](O)C6)N5C(=O)[C@@H](NC(=O)OC)C(C)C)n4)cc3)cc2)[nH]1)C(C)C (some centres unmarked) [Compound 45] | < 50 nM
COC(=O)N[C@H](C(=O)N1CCC[C@H]1c1ncc(-c2ccc(-c3ccc(-c4c[nH]c([C@@H]5C6CC([C@@H](O)[C@H]6O)N5C(=O)[C@@H](NC(=O)OC)C(C)C)n4)cc3)cc2)[nH]1)C(C)C (some centres unmarked) [Compound 46] | < 50 nM
COC(=O)N[C@H](C(=O)N1CCC[C@H]1c1nc(-c2ccc(-c3ccc(-c4c[nH]c([C@@H]5C6CCC(CC6)N5C(=O)[C@@H](NC(=O)OC)C(C)C)n4)cc3)cc2)c[nH]1)C(C)C [Compound 47] | < 5 nM
COC(=O)N[C@H](C(=O)N1CCCC[C@H]1c1nc(-c2ccc(-c3ccc(-c4c[nH]c([C@@H]5CCCN5C(=O)[C@@H](NC(=O)OC)C(C)C)n4)cc3)cc2)c[nH]1)C(C)C [Compound 48] | < 5 nM
COC(=O)N[C@H](C(=O)N1CCCCC1c1nc(-c2ccc(-c3ccc(-c4c[nH]c(C5C6CCC(C6)N5C(=O)[C@@H](NC(=O)OC)C(C)C)n4)cc3)cc2)c[nH]1)C(C)C (some centres unmarked) [Compound 49] | < 5 nM
COC(=O)N[C@H](C(=O)N1CCCCC1c1nc(-c2ccc(-c3ccc(-c4c[nH]c(C5CCCCN5C(=O)[C@@H](NC(=O)OC)C(C)C)n4)cc3)cc2)c[nH]1)C(C)C (some centres unmarked) [Compound 50] | < 5 nM
COC(=O)NC(C(=O)N1C2CCC(CC2)C1c1ncc(-c2ccc(-c3ccc(-c4c[nH]c([C@@H]5C6CCC(CC6)N5C(=O)C(NC(=O)OC)C(C)C)n4)cc3)cc2)[nH]1)C(C)C (some centres unmarked) [Compound 51] | < 5 nM
COC(=O)N[C@H](C(=O)N1C2CC(CN(C)C2)C1c1nc(-c2ccc(-c3ccc(-c4cnc([C@@H]5CCCN5C(=O)[C@@H](NC(=O)OC)C(C)C)[nH]4)cc3)cc2)c[nH]1)C(C)C (some centres unmarked) [Compound 52] | < 50 nM
COC(=O)N[C@H]1CC[C@H]2CC[C@@H](c3ncc(-c4ccc(-c5ccc(-c6cnc([C@@H]7CCCN7C(=O)[C@@H](NC(=O)OC)C(C)C)[nH]6)cc5)cc4)[nH]3)N2C1=O [Compound 55] | < 50 nM
COC(=O)N[C@H](C(=O)N1C2CCC(C2)C1c1ncc(-c2ccc(-c3ccc(-c4cnc(C5C6CCC(C6)N5C(=O)[C@@H](NC(=O)OC)C(C)C)[nH]4)cc3)cc2)[nH]1)C(C)C (stereo partly drawn) [Compound 56, dimethyl (2S,2′S)-1,1′-(3,3′-(5,5′-(biphenyl-4,4′-diyl)bis(1H-imidazole-5,2-diyl))bis(2-azabicyclo[2.2.1]heptane-3,2-diyl))bis(3-methyl-1-oxobutane-2,1-diyl)dicarbamate] | < 5 nM
COC(=O)N[C@H](C(=O)N1C2CCC(C2)C1c1ncc(-c2ccc(-c3ccc(-c4cnc([C@@H]5CCCN5C(=O)[C@@H](NC(=O)OC)C(C)C)[nH]4)cc3)cc2)[nH]1)C(C)C (some centres unmarked) [Compound 57] | < 5 nM
COC(=O)N[C@H](C(=O)N1CCCCCC1c1nc(-c2ccc(-c3ccc(-c4c[nH]c(C5CCCN5C(=O)[C@@H](NC(=O)OC)C(C)C)n4)cc3)cc2)c[nH]1)C(C)C (some centres unmarked) [Compound 59] | < 5 nM
COC(=O)NC(C(=O)C1C(c2nc(-c3ccc(-c4ccc(-c5cnc([C@@H]6CCCN6C(=O)[C@@H](NC(=O)OC)C(C)C)[nH]5)cc4)cc3)c[nH]2)C2CC1[C@H](F)[C@@H]2F)C(C)C (some centres unmarked) [Compound 60] | < 5 nM
COC(=O)N[C@H](C(=O)N1CCCCCC1c1nc(-c2ccc(-c3ccc(-c4c[nH]c(C5CCCCCN5C(=O)[C@@H](NC(=O)OC)C(C)C)n4)cc3)cc2)c[nH]1)C(C)C (stereo partly drawn) [Compound 61, dimethyl (2S,2′S)-1,1′-(2,2′-(4,4′-(biphenyl-4,4′-diyl)bis(1H-imidazole-4,2-diyl))bis(azepane-2,1-diyl))bis(3-methyl-1-oxobutane-2,1-diyl)dicarbamate] | < 50 nM
COC(=O)NC(C(=O)N1C2CCC(C2)C1c1nc(-c2ccc(-c3ccc(-c4c[nH]c(C5C=CCN5C(=O)[C@@H](NC(=O)OC)C(C)C)n4)cc3)cc2)c[nH]1)C(C)C (some centres unmarked) [Compound 62] | < 5 nM
COC(=O)N[C@H](C(=O)N1CCCCCC1c1nc(-c2ccc(-c3ccc(-c4c[nH]c(C5C6CCC(C6)N5C(=O)[C@@H](NC(=O)OC)C(C)C)n4)cc3)cc2)c[nH]1)C(C)C (some centres unmarked) [Compound 63] | < 5 nM
COC(=O)N[C@H](C(=O)N1CCC[C@H]1C1=NC(c2ccc(-c3ccc4[nH]c([C@@H]5C6CCC(C6)N5C(=O)[C@@H](NC(=O)OC)C(C)C)nc4c3)cc2)CN1)C(C)C (some centres unmarked) [Compound 65] | < 5 nM
COC(=O)N[C@H](C(=O)N1CCC[C@H]1c1ncc(-c2ccc(-c3ccc4oc(-c5cnc([C@@H]6C7CCC(C7)N6C(=O)[C@@H](NC(=O)OC)C(C)C)[nH]5)cc4c3)cc2)[nH]1)C(C)C (some centres unmarked) [Compound 70] | < 5 nM
COC(=O)N[C@H](C(=O)N1CCC[C@H]1c1ncc(-c2cc3cc(-c4ccc(-c5cnc([C@@H]6C7CCC(C7)N6C(=O)[C@@H](NC(=O)OC)C(C)C)[nH]5)cc4)ccc3o2)[nH]1)C(C)C (some centres unmarked) [Compound 71] | < 5 nM
COC(=O)N[C@H](C(=O)N1C2CCC(C2)[C@H]1c1nc(-c2ccc(/C=C/c3ccc(-c4cnc([C@@H]5C6CCC(C6)N5C(=O)[C@@H](NC(=O)OC)C(C)C)[nH]4)cc3)cc2)c[nH]1)C(C)C (some centres unmarked) [Compound 72] | < 5 nM
COC(=O)N[C@H](C(=O)N1C2CC(F)C(C2)C1c1ncc(-c2ccc(-c3ccc(-c4cnc([C@@H]5CCCN5C(=O)[C@@H](NC(=O)OC)C(C)C)[nH]4)cc3)cc2)[nH]1)C(C)C (some centres unmarked) [Compound 73] | < 5 nM
COC(=O)N[C@H](C(=O)N1C2CCC(C2)[C@H]1c1nc(-c2ccc(-c3c[nH]c([C@@H]4C5CCC(C5)N4C(=O)[C@@H](NC(=O)OC)C(C)C)n3)cc2)c[nH]1)C(C)C [Compound 74] | < 50 nM
COC(=O)N[C@H](C(=O)N1C2CCC(C2)[C@H]1c1nc(-c2ccc3c(c2)Cc2cc(-c4c[nH]c([C@@H]5C6CCC(C6)N5C(=O)[C@@H](NC(=O)OC)C(C)C)n4)ccc2-3)c[nH]1)C(C)C [Compound 75] | < 5 nM

same assay, conditions: Hepatitis C virus, 72 h; Huh-7 HCV replicon-containing cells, three days; numeric cells; read-out: EC50

Compound | EC50
COC(=O)N[C@H](C(=O)N1C2CCC(C2)[C@H]1c1ncc(-c2ccc(Br)cc2)[nH]1)C(C)C (stereo partly drawn) [Compound 54, methyl (2S)-1-((3S)-3-(5-(4-bromophenyl)-1H-imidazol-2-yl)-2-azabicyclo[2.2.1]heptan-2-yl)-3-methyl-1-oxobutan-2-ylcarbamate] | < 100 nM
COC(=O)NC(C(=O)N1C2CCC(C2)C1c1nc2ccc(-c3ccc4[nH]c(C5C6CCC(C6)N5C(=O)[C@@H](NC(=O)OC)C(C)C)nc4c3)cc2[nH]1)C(C)C (some centres unmarked) [Compound 64] | 619 nM

same assay, conditions: Hepatitis C virus, Huh-7

Compound | EC50
CNC(=O)C[C@H](C(=O)N1CCC[C@@H]1c1ncc(-c2ccc(-c3ccc(-c4cnc([C@@H]5CCCN5C(=O)[C@@H](CC(=O)NC)C(C)C)[nH]4)cc3)cc2)[nH]1)C(C)C [Compound 40, (S)-3-((R)-2-(5-(4′-(2-((S)-1-((S)-2-isopropyl-4-(methylamino)-4-oxobutanoyl)pyrrolidin-2-yl)-1H-imidazol-5-yl)biphenyl-4-yl)-1H-imidazol-2-yl)pyrrolidine-1-carbonyl)-N,4-dimethylpentanamide] | ≤ 10000 nM

From patent US9125904B1, “Biphenyl imidazoles and related compounds useful for treating HCV infections” (ACHILLION PHARMACEUTICALS, INC., priority 2010, dated 2015)
